Laboratory results published in ChEMBL document CHEMBL1133414, “Bifunctional alkylating agents derived from duocarmycin SA: potent antitumor activity with altered sequence selectivity” (Bioorg Med Chem Lett, 2000).
pIC50: −log10 of the molar value.

Each compound was assayed on L1210 (assay: In vitro cytotoxicity against L1210 cell line). Details: Mus musculus.
Assay type: functional, cell-based

SMILES	pIC50
COC(=O)c1cc2c([nH]1)C(=O)C=C1N(C(=O)c3cc4cc(OC)c(OC)c(OC)c4[nH]3)C[C@@H]3C[C@@]123	10.00
COC(=O)c1cc2c([nH]1)C(=O)C=C1N(C(=O)c3cc4c([nH]3)C(=O)C=C3N(C(=O)OC(C)(C)C)C[C@H]5C[C@]345)C[C@@H]3C[C@@]123	10.40
COC(=O)c1cc2c([nH]1)C(=O)C=C1N(C(=O)c3cc4c([nH]3)C(=O)C=C3N(C(=O)OC(C)(C)C)C[C@@H]5C[C@@]345)C[C@@H]3C[C@@]123	10.30
COC(=O)c1cc2c([nH]1)C(=O)C=C1N(C(=O)c3cc4c([nH]3)C(=O)C=C3N(C(=O)OC(C)(C)C)C[C@H]5C[C@]345)C[C@H]3C[C@]123	11.52
COC(=O)c1cc2c([nH]1)C(=O)C=C1N(C(=O)c3cc4c([nH]3)C(=O)C=C3N(C(=O)OC(C)(C)C)C[C@@H]5C[C@@]345)C[C@H]3C[C@]123 (mixture of isomers)	11.30
COC(=O)c1cc2c([nH]1)C(=O)C=C1N(C(=O)c3cc4cc(OC)c(OC)c(OC)c4[nH]3)C[C@H]3C[C@]123 [DUOCARMYCIN]	11.00
